# Patent publication US10786521B2, “Methods and compositions for treatment of COPD diseases” (Shanghai KE Pharmaceutical Co., LTD, priority 2014, dated 2020)
# System: permeable (skinned) airway smooth muscle strips
# Assay: Ca2+-induced sustained contraction of alpha-toxin permeabilized bronchial ring at constant calcium
# Type: cell-based, C57BL/6J mice
# Settings: pCa 4.5 elicited contraction
# Description: To assess the requirement of calcium reduction for kudinoside-mediated relaxation, smooth muscle tissues permeable were made. Briefly, the fresh bronchial ring were separated by sharp dissection from C57BL/6J mice. Following incubation for 10 minutes in H-T buffer, the muscle strips were treated for 5 minutes in Ca^2+-free H-T buffer and for 5 minutes in buffer A (30 mmol/L TES, 0.5 mmol/L dithiothreitol, 50 mmol/L KCl, 5 mmol/L K2EGTA, 150 mmol/L sucrose, pH 7.4), and then were subsequently permeabilized in α-toxin (16,000 units/mL; Sigma) in buffer A for 40 minutes at room temperature.
# Treatment with […] ionomycin (Sigma) in buffer A for 10 minutes was used to deplete Ca^2+ stores. Permeable tissues were washed in pCa 9.0 solution (20 mmol/L TES, 4 mmol/L K2EGTA, 5.83 mmol/L MgCl2, 7.56 mmol/L potassium propionate, 3.9 mmol/L Na2ATP, 0.5 mmol/L dithioerythritol, 16.2 mmol/L phosphocreatine, 15 U/mL creatine kinase, pH 6.9), followed by incubation in pCa 4.5 solution (20 mmol/L TES, 4 mmol/L CaEGTA, 5.66 mmol/L MgCl2, 7.53 mmol/L potassium propionate, 3.9 mmol/L Na2ATP, 0.5 mmol/L dithioerythritol, 16.2 mmol/L phosphocreatine, 15 U/mL creatine kinase, pH 6.9) to elicit a sustained Ca^2+-induced contraction. After wash out the solution, permeable muscle strips were then incubated with pCa 5.0 solution and relaxed by adding Kudinoside D dissolved in pCa 5.0 solution.
smiles,measurement,value
C[C@@H]1O[C@@H](O[C@H]2[C@H](O[C@H]3CC[C@@]4(C)C(CC[C@]5(C)C4C=CC4=C6[C@]7(CC[C@](C)(OC7=O)[C@@]6(C)O)CC[C@]45C)C3(C)C)OC[C@H](O)[C@@H]2O[C@@H]2O[C@H](CO)[C@@H](O)[C@H](O)[C@H]2O)[C@H](O)[C@H](O)[C@H]1O (stereo partly shown) [Kudinoside D],relaxation of sustained Ca2+-induced contraction of skinned muscle strip,"could not relax this sustained contraction, and contrarily slightly enhanced it"
